Reference: PMC12518639, “Apomorphine is a novel necroptosis inhibitor targeting mixed lineage kinase domain-like protein oligomerization” (Cell Death Discovery, 2025)

Tests used:
[1] = target: T1, Nt-hMLKL^R145A/R146A/F148A/M150A (Homo sapiens, UniProt Q8NB16, F148A/M150A/R145A/R146A); experiment: SPR binding to Nt-hMLKL quadruple mutant; conditions: CM5 chip
T1 construct: an N-terminal domain (Nt-hMLKL, amino acids 2–154, MW: 23 kDa) involved in oligomerization; His (N); made in house; host or cells: E. coli BL21
Description: The hMLKL plasmid (RC213152, OriGene, Rockville, MD, USA), and recombinant Wt-hMLKL (ab241453, Abcam) and Wt-mMLKL (MBS1379843, MyBioSource, San Diego, CA, USA) proteins were purchased. Nt-hMLKL (2–154), Nt-mMLKL (1–180), and Ct-hMLKL (183–471) were generated using the pBT7-N-His vector. Nt-hMLKL^C86A, Nt-hMLKL^F148A, -hMLKL^C86A/L89A/D94A, and Nt-hMLKL^R145A/R146A/F148A/M150A were generated using the Site-directed Mutagenesis Kit (EZ004S, Enzynomics, S. Korea). These constructs were subcloned into pBT7-N-His and pET-15b plasmid vectors. E. coli BL21 cells transformed with the cloned expression vectors were cultured in LB medium and supplemented with 100 μg/mL ampicillin until an OD at 600 nm of 0.5–0.6 was reached. The cultures were induced by 1 mM IPTG (367-93-1, Sigma-Aldrich). The cells were lysed and centrifuged. The clear supernatants were subjected to Ni-NTA affinity chromatography (175018169, QIAGEN, Hilden, Germany). Plasmids encoding mMLKL (1–464)–gyrase fusion constructs were kindly provided by Prof. […]
The interactions of Wt-hMLKL, Wt-mMLKL, Nt-mMLKL, Nt, and Ct-hMLKL proteins with Re-APO or Ox-APO were detected through SPR analysis using Biacore™ T200 (Cytiva, Marlborough, MA, USA). […] Sensorgrams were recorded and analyzed in real-time using the control software in the BIAcore T200 system. All data were analyzed using the BIA evaluation software (Cytiva).

[2] = tested on: p-MLKL and p-RIP1; experiment: Western blot of cytosol and membrane fractions; assay type: cell-based, human; conditions: THP-1, TBZ, 20 μM
Description: The cells were harvested and lysed in 1× RIPA buffer (R4100-010, GenDEPOT, Katy, TX, USA) containing protease (P3100-001, GenDEPOT) and phosphatase (1862495, Thermo Fisher Scientific) inhibitors. WCLs were then centrifuged at 20,000×g for 30 min at 4 °C and subjected to non-reducing or reducing 8–12% SDS-PAGE gel electrophoresis. The membrane was blocked with 5% non-fat milk in TBS and probed with antibodies. Antibodies to hMLKL (14993S), mMLKL (97705S), phospho-hMLKL (Ser358) (91689S), phospho-mMLKL (Ser345) (37333S), phospho-hRIP1 (Ser166) (65746S), mRIP1 (3493S), phospho-mRIP1 (Ser321) (38662S), phospho-hRIP3 (Ser227) (93654), mRIP3 (95702S), p-mRIP3 (Thr231/Ser232) (91702S), and LDH (2012S) (Cell Signaling Technology, Danvers, MA, USA), and GAPDH (LF-PA0018, Abfrontier, S. Korea), hRIP1 (ab72139, Abcam, Cambridge, UK), hRIP3 (sc-135170, Santa Cruz Biotechnology, Dallas, TX, USA), HMGB1 (ab78923, Abcam), and LAMP1 (ab24170, Abcam) antibodies were used.
Cell membrane fractionation was performed to determine whether MLKL oligomers were retained in the cell membrane fraction. Briefly, THP-1 cells were harvested and resuspended in 20 mM TBS (pH 7.4) containing 10 mM KCl, 1 mM MgCl2, protease inhibitor (P3100-001, GenDEPOT), and phosphatase inhibitor (1862495, Thermo Fisher Scientific). The cell suspension was passed through a 22-gauge needle and centrifuged at 20,000×g for 15 min and stored as the cytoplasmic fraction. The pellet was resuspended in lysis buffer and stored as the crude membrane fraction.
Fig. S1 Assessment of p-MLKL inhibition to identify MLKL-targeting molecules. (A) Quantification graph corresponding to Fig. 1C. THP-1 cells were treated with TBZ in the presence of secondarily selected compounds (S1–S72, 20 μM). Whole-cell lysates (WCLs) were collected and subjected to Western blot analysis under reducing conditions using antibodies against p-MLKL, MLKL, and GAPDH. The p-MLKL/MLKL ratio was quantified and compared to that of TBZ-treated cells. Data represent the mean of three independent experiments. (B) Quantification graph corresponding to Fig. 1D. THP-1 cells were treated with TBZ in the presence of third-round selected compounds (S1–S62, 20 μM). Cytosolic and membrane fractions were collected and analyzed by Western blot under reducing conditions. The levels of p-MLKL and p-RIP1 were normalized to LDH (cytosolic marker) and LAMP1 (membrane marker), respectively. Quantified ratios were compared to those of TBZ-treated cells (n = 3 independent experiments).

T1 sequence (Q8NB16 2-154 R145A/R146A/F148A/M150A): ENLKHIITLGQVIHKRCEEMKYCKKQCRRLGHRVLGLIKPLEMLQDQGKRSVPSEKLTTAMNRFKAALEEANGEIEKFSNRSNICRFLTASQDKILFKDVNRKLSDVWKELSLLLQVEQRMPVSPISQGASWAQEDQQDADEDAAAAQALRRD

Structure (SMILES) | binding in SPR [1] | p-MLKL levels in the cytosolic fraction [2] | p-MLKL levels in the membrane fraction [2]
CN1CCc2cccc3c4c(cc1c23)C=CC(=O)C4=O [Ox-APO] | retained binding | – | –
CN1CCc2cccc3c2[C@@H]1Cc1ccc(O)c(O)c1-3 [S62, (6aS)-6-methyl-5,6,6a,7-tetrahydro-4H-dibenzo[de,g]quinoline-10,11-diol] | – | little or moderate inhibition | significantly inhibited
